How the values were obtained:
Format in all cases: functional
Details in all cases: read-out: Activity
MDA-MB-468 = assay: Cytotoxicity against human MDA-MB-468 cells assessed as cell viability at 10 uM incubated for 48 hrs by sulforhodamine B assay relative to control
BT-549 = assay: Cytotoxicity against human BT-549 cells assessed as cell viability at 10 uM incubated for 48 hrs by sulforhodamine B assay relative to control
MDA-MB-231 = assay: Cytotoxicity against human MDA-MB-231 cells assessed as cell viability at 10 uM incubated for 48 hrs by sulforhodamine B assay relative to control
MCF7 = assay: Cytotoxicity against human MCF7 cells assessed as cell viability at 10 uM incubated for 48 hrs by sulforhodamine B assay relative to control
DU-145 = assay: Cytotoxicity against human DU-145 cells assessed as cell viability at 10 uM incubated for 48 hrs by sulforhodamine B assay relative to control
PC-3 = assay: Cytotoxicity against human PC-3 cells assessed as cell viability at 10 uM incubated for 48 hrs by sulforhodamine B assay relative to control
TK-10 = assay: Cytotoxicity against human TK-10 cells assessed as cell viability at 10 uM incubated for 48 hrs by sulforhodamine B assay relative to control
SN12C = assay: Cytotoxicity against human SN12C cells assessed as cell viability at 10 uM incubated for 48 hrs by sulforhodamine B assay relative to control
CAKI-1 = assay: Cytotoxicity against human CAKI-1 cells assessed as cell viability at 10 uM incubated for 48 hrs by sulforhodamine B assay relative to control
ACHN = assay: Cytotoxicity against human ACHN cells assessed as cell viability at 10 uM incubated for 48 hrs by sulforhodamine B assay relative to control
786-0 = assay: Cytotoxicity against human 786-0 cells assessed as cell viability at 10 uM incubated for 48 hrs by sulforhodamine B assay relative to control
SK-OV-3 = assay: Cytotoxicity against human SK-OV-3 cells assessed as cell viability at 10 uM incubated for 48 hrs by sulforhodamine B assay relative to control
NCI/ADR-RES = assay: Cytotoxicity against human NCI/ADR-RES cells assessed as cell viability at 10 uM incubated for 48 hrs by sulforhodamine B assay relative to control
OVCAR-8 = assay: Cytotoxicity against human OVCAR-8 cells assessed as cell viability at 10 uM incubated for 48 hrs by sulforhodamine B assay relative to control
OVCAR-4 = assay: Cytotoxicity against human OVCAR-4 cells assessed as cell viability at 10 uM incubated for 48 hrs by sulforhodamine B assay relative to control
OVCAR-3 = assay: Cytotoxicity against human OVCAR-3 cells assessed as cell viability at 10 uM incubated for 48 hrs by sulforhodamine B assay relative to control
IGROV-1 = assay: Cytotoxicity against human IGROV-1 cells assessed as cell viability at 10 uM incubated for 48 hrs by sulforhodamine B assay relative to control
SK-MEL-28 = assay: Cytotoxicity against human SK-MEL-28 cells assessed as cell viability at 10 uM incubated for 48 hrs by sulforhodamine B assay relative to control
MDA-MB-435 = assay: Cytotoxicity against human MDA-MB-435 cells assessed as cell viability at 10 uM incubated for 48 hrs by sulforhodamine B assay relative to control
M14 = assay: Cytotoxicity against human M14 cells assessed as cell viability at 10 uM incubated for 48 hrs by sulforhodamine B assay relative to control
CCRF-CEM = assay: Cytotoxicity against human CCRF-CEM cells assessed as cell viability at 10 uM incubated for 48 hrs by sulforhodamine B assay relative to control
HL-60(TB) = assay: Cytotoxicity against human HL-60(TB) cells assessed as cell viability at 10 uM incubated for 48 hrs by sulforhodamine B assay relative to control
K562 = assay: Cytotoxicity against human K562 cells assessed as cell viability at 10 uM incubated for 48 hrs by sulforhodamine B assay relative to control
RPMI-8226 = assay: Cytotoxicity against human RPMI-8226 cells assessed as cell viability at 10 uM incubated for 48 hrs by sulforhodamine B assay relative to control
SR = assay: Cytotoxicity against human SR cells assessed as cell viability at 10 uM incubated for 48 hrs by sulforhodamine B assay relative to control
A549 = assay: Cytotoxicity against human A549 cells assessed as cell viability at 10 uM incubated for 48 hrs by sulforhodamine B assay relative to control
HOP-62 = assay: Cytotoxicity against human HOP-62 cells assessed as cell viability at 10 uM incubated for 48 hrs by sulforhodamine B assay relative to control
HOP-92 = assay: Cytotoxicity against human HOP-92 cells assessed as cell viability at 10 uM incubated for 48 hrs by sulforhodamine B assay relative to control
NCI-H226 = assay: Cytotoxicity against human NCI-H226 cells assessed as cell viability at 10 uM incubated for 48 hrs by sulforhodamine B assay relative to control
NCI-H23 = assay: Cytotoxicity against human NCI-H23 cells assessed as cell viability at 10 uM incubated for 48 hrs by sulforhodamine B assay relative to control
NCI-H322M = assay: Cytotoxicity against human NCI-H322M cells assessed as cell viability at 10 uM incubated for 48 hrs by sulforhodamine B assay relative to control
NCI-H460 = assay: Cytotoxicity against human NCI-H460 cells assessed as cell viability at 10 uM incubated for 48 hrs by sulforhodamine B assay relative to control
COLO 205 = assay: Cytotoxicity against human COLO 205 cells assessed as cell viability at 10 uM incubated for 48 hrs by sulforhodamine B assay relative to control
HCT-15 = assay: Cytotoxicity against human HCT-15 cells assessed as cell viability at 10 uM incubated for 48 hrs by sulforhodamine B assay relative to control
HCT-29 = assay: Cytotoxicity against human […] cells assessed as cell viability at 10 uM incubated for 48 hrs by sulforhodamine B assay relative to control
KM12 = assay: Cytotoxicity against human KM12 cells assessed as cell viability at 10 uM incubated for 48 hrs by sulforhodamine B assay relative to control
SF-268 = assay: Cytotoxicity against human SF-268 cells assessed as cell viability at 10 uM incubated for 48 hrs by sulforhodamine B assay relative to control
SF-295 = assay: Cytotoxicity against human SF-295 cells assessed as cell viability at 10 uM incubated for 48 hrs by sulforhodamine B assay relative to control
SNB-19 = assay: Cytotoxicity against human SNB-19 cells assessed as cell viability at 10 uM incubated for 48 hrs by sulforhodamine B assay relative to control
SNB-75 = assay: Cytotoxicity against human SNB-75 cells assessed as cell viability at 10 uM incubated for 48 hrs by sulforhodamine B assay relative to control
LOX IMVI = assay: Cytotoxicity against human LOX IMVI cells assessed as cell viability at 10 uM incubated for 48 hrs by sulforhodamine B assay relative to control

For `O=C(NCCNc1nccc(-c2c(-c3cccc(F)c3)nc3sccn23)n1)c1c(F)cccc1F`, the viability at 10 µM (MDA-MB-468) was 54.3%, the viability at 10 µM (BT-549) was 56% and the viability at 10 µM (MDA-MB-231) was 81.2%. For the same compound, the viability at 10 µM (MCF7) was 17.5%, the viability at 10 µM (DU-145) was 50.1% and the viability at 10 µM (PC-3) was 57%. For the same compound, the viability at 10 µM (TK-10) was 66.6%, the viability at 10 µM (SN12C) was 45% and the viability at 10 µM (CAKI-1) was 34.5%. The viability at 10 µM (ACHN) was 26%, the viability at 10 µM (786-0) was 44.2% and the viability at 10 µM (SK-OV-3) was 64.1%. The viability at 10 µM (NCI/ADR-RES) was 56.9%, the viability at 10 µM (OVCAR-8) was 44.2% and the viability at 10 µM (OVCAR-4) was 60.9%. The viability at 10 µM (OVCAR-3) was 56.8%, the viability at 10 µM (IGROV-1) was 12.1% and the viability at 10 µM (SK-MEL-28) was 51.1%. The viability at 10 µM (MDA-MB-435) was 17.4%, the viability at 10 µM (M14) was 29.3% and the viability at 10 µM (CCRF-CEM) was 42.8%. It also gave a viability at 10 µM (HL-60(TB)) of 86.4%, a viability at 10 µM (K562) of 40.2% and a viability at 10 µM (RPMI-8226) of 41%. For the same compound, the viability at 10 µM (SR) was 26%, the viability at 10 µM (A549) was 29.1% and the viability at 10 µM (HOP-62) was 63.8%. The viability at 10 µM (HOP-92) was 66.2%, the viability at 10 µM (NCI-H226) was 40.7% and the viability at 10 µM (NCI-H23) was 61.9%. The viability at 10 µM (NCI-H322M) was 57.5%, the viability at 10 µM (NCI-H460) was 24.8% and the viability at 10 µM (COLO 205) was 19.2%. It also gave a viability at 10 µM (HCT-15) of 31.1%, a viability at 10 µM (HCT-29) of 20.4% and a viability at 10 µM (KM12) of 47.7%. The viability at 10 µM (SF-268) was 54.4%, the viability at 10 µM (SF-295) was 66.8% and the viability at 10 µM (SNB-19) was 55.2%. The viability at 10 µM (SNB-75) was 59.5% and the viability at 10 µM (LOX IMVI) was 32.4%.

`O=S(=O)(NCCNc1nccc(-c2c(-c3cccc(F)c3)nc3sccn23)n1)c1ccccc1` gave a viability at 10 µM (MDA-MB-468) of 43.6%, a viability at 10 µM (BT-549) of 50.4% and a viability at 10 µM (MDA-MB-231) of 66%. It also gave a viability at 10 µM (MCF7) of 21.7%, a viability at 10 µM (DU-145) of 40% and a viability at 10 µM (PC-3) of 33.1%. The viability at 10 µM (TK-10) was 59.5%, the viability at 10 µM (SN12C) was 40.3% and the viability at 10 µM (CAKI-1) was 39.1%. For the same compound, the viability at 10 µM (ACHN) was 26%, the viability at 10 µM (786-0) was 47.4% and the viability at 10 µM (SK-OV-3) was 57.1%. For the same compound, the viability at 10 µM (NCI/ADR-RES) was 46.3%, the viability at 10 µM (OVCAR-8) was 33.9% and the viability at 10 µM (OVCAR-4) was 40%. It also gave a viability at 10 µM (OVCAR-3) of 58.9%, a viability at 10 µM (IGROV-1) of 4.9% and a viability at 10 µM (SK-MEL-28) of 54.3%. For the same compound, the viability at 10 µM (MDA-MB-435) was 17.4%, the viability at 10 µM (M14) was 41.4% and the viability at 10 µM (CCRF-CEM) was 33.6%. The viability at 10 µM (HL-60(TB)) was 63.1%, the viability at 10 µM (K562) was 23.9% and the viability at 10 µM (RPMI-8226) was 43.5%. For the same compound, the viability at 10 µM (SR) was 29.2%, the viability at 10 µM (A549) was 25.2% and the viability at 10 µM (HOP-62) was 60.2%. The viability at 10 µM (HOP-92) was 51.5%, the viability at 10 µM (NCI-H226) was 34.5% and the viability at 10 µM (NCI-H23) was 56.1%. For the same compound, the viability at 10 µM (NCI-H322M) was 51.5%, the viability at 10 µM (NCI-H460) was 25.9% and the viability at 10 µM (COLO 205) was 24.1%. It also gave a viability at 10 µM (HCT-15) of 25.8%, a viability at 10 µM (HCT-29) of 23.2% and a viability at 10 µM (KM12) of 28.8%. The viability at 10 µM (SF-268) was 43.5%, the viability at 10 µM (SF-295) was 47.4% and the viability at 10 µM (SNB-19) was 55.9%. The viability at 10 µM (SNB-75) was 71.5% and the viability at 10 µM (LOX IMVI) was 36.3%.
